According to article doi:10.1101/2021.06.15.448479v1 (biorxiv, 2021):
One block for each molecule: values may come before it.

Experiments:
ACER3 [1] = biological target: T1, ACER3 (Homo sapiens, UniProt Q9NUN7); test: FRETcer1 hydrolysis, FRET, crude membranes of overexpressing Sf9 cells; format: cell-based
T1 sequence (Q9NUN7 1-267): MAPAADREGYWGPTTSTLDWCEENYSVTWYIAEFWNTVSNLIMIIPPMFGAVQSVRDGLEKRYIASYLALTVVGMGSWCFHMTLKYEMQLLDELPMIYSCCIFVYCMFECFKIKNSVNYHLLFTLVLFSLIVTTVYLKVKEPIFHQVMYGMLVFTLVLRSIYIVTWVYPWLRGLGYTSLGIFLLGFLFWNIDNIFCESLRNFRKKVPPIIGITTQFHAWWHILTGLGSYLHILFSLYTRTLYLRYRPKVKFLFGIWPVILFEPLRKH

ACER3 [2] = biological target: T1, ACER3; test: as above; format: biochemical
ACER3 [3] = biological target: T1, ACER3; test: biochemical
[4] = substrate: Cc1c(Br)c(=O)oc2cc3c(cc12)OC(CC(=O)NCCCCCC(=O)N[C@@H](CO)[C@H](O)/C=C/CCCCCCCCCNc1ccc([N+](=O)[O-])c2nonc12)O3; test: cells, lysate or membranes; settings: detergent-purified ACER3

- IC50 (ACER3 [1]): 5290 ± 2160 nM
Molecule: CCCC(C)NC(=O)c1ccc(Cl)c(Cl)c1 (stereo not shown) [NSC405020]

- IC50 (ACER3 [1]): 1310 ± 950 nM
Molecule: Cc1noc(CCNC(=O)N2CCC(c3ccc(F)c(F)c3)CC2)n1 [Z1124621112]

- IC50 (ACER3 [1]): 1040 ± 350 nM
Molecule: O=C(Nc1cnn(C2CCC2)c1)N1CCC(c2cccc(F)c2)CC1 [Z2956776388]

- IC50 (ACER3 [1]): 1210 ± 740 nM
Molecule: CCCCNC(=O)Cc1noc(C(C)c2cccc(O)c2)n1 (stereo not shown) [Z3016340412]

Further lines, the molecule ahead of its results:

Molecule: CCCC(C)C(=O)Nc1ccc(Cl)c(C(F)(F)F)c1 (stereo not shown) [compound 02, Compound 02]
- IC50 (ACER3 [2]): 700 nM

Molecule: CC(C)[C@H]1CC[C@H](C(=O)Nc2ccc(Cl)c(Cl)c2)CC1 [compound 03, N-(3,4-dichlorophenyl)-4-isopropylcyclohexane-1-carboxamide]
- IC50 (ACER3 [2]): 710 nM

Molecule: CCCCC/C=C\C/C=C\CCCCCCCC(=O)O [linoleic acid]
- IC50 (ACER3 [3]): 1500 nM

Molecule: CCCCCCCCCCCCCC(=O)O [myristic acid]
- IC50 (ACER3 [3]): 9300 nM

Molecule: CCCCCCCC/C=C\CCCCCCCC(=O)O [oleic acid]
- IC50 (ACER3 [3]): 2300 nM

Molecule: CCCCCCCCCCCCCCCC(=O)O [palmitic acid]
- IC50 (ACER3 [3]): 12600 nM

Molecule: CCCCCC/C=C\CCCCCCCC(=O)O [palmitoleic acid]
- IC50 (ACER3 [3]): 1900 nM

Molecule: CCCCCCCCCCCCCCCCCC(=O)O [stearic acid]
- IC50 (ACER3 [3]): 29300 nM

B1: ACER3 (Homo sapiens) (protein)
chain: T1 sequence (Q9NUN7 1-267)
- Km [4]: 10.76 ± 2.03 µM
